Assay results from ChEMBL document CHEMBL1909046, “DrugMatrix in vitro pharmacology data”.

Legend:
[1] = biological target: Sigma non-opioid intracellular receptor 1 (Homo sapiens, UniProt Q99720); experiment: DRUGMATRIX: Sigma1 radioligand binding (ligand: [3H] Haloperidol); format: cell membranes, Jurkat, Membrane; conditions: jurkat; Not Active = under 50% inhibition at 10 µM
Calcitonin receptor = biological target: T1, Calcitonin receptor (Homo sapiens, UniProt P30988); format: cell membranes, Membrane; conditions: t47d; further: in other assays of this panel Not Active means under 50% inhibition at 10 µM
T1 sequence (P30988 whole entry): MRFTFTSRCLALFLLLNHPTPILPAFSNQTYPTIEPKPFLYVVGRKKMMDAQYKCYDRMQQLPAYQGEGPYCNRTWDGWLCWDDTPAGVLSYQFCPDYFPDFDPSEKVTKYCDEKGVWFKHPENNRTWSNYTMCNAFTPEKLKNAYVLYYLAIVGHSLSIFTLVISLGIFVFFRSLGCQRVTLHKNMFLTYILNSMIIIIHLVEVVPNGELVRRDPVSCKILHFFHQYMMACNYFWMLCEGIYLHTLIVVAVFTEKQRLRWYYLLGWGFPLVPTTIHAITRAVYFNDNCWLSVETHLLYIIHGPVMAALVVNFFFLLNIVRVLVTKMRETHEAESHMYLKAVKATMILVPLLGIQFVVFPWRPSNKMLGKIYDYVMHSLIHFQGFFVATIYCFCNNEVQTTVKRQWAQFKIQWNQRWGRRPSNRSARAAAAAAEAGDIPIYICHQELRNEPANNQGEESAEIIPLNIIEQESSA

Cytochrome P450 2E1 = Cytochrome P450 2E1 (Homo sapiens, UniProt P05181); conditions: bti-tn-5b1-4; further: in other assays of this panel Not Active means under 50% inhibition at 10 µM
Cytochrome P450 2E1, sequence (P05181 whole entry): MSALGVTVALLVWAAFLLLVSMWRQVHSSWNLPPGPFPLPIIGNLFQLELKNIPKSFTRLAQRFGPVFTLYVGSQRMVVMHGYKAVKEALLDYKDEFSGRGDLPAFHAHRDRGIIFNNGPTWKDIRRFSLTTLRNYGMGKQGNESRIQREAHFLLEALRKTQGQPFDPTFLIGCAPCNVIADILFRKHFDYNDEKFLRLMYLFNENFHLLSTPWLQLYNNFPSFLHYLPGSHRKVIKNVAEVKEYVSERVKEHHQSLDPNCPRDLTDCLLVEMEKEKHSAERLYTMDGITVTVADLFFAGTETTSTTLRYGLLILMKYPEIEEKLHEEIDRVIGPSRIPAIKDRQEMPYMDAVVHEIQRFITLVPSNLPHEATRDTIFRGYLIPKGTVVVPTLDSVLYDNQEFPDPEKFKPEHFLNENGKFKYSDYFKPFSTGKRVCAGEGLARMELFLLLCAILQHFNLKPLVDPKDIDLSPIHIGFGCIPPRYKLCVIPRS

[2] = biological target: T2, Alpha-2A adrenergic receptor (Homo sapiens, UniProt P08913); format: cell membranes, Sf9, Membrane; conditions: sf9; further: in other assays of this panel Not Active means under 50% inhibition at 10 µM
T2 sequence (P08913 whole entry): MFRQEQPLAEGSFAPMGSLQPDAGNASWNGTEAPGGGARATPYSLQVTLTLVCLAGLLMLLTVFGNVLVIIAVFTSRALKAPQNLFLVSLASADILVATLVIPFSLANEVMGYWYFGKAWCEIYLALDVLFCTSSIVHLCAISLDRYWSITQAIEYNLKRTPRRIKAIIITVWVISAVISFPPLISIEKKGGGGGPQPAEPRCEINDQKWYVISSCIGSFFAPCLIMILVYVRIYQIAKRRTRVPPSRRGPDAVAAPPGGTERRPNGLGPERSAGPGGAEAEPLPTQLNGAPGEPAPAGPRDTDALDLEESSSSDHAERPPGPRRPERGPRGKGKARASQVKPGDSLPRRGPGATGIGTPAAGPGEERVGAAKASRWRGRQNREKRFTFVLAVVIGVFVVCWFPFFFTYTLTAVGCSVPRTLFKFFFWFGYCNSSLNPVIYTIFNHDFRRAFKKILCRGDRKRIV

[3] = DRUGMATRIX: Nicotinic Acetylcholine radioligand binding (ligand: [125I] Epibatidine); format: cell membranes, Membrane; conditions: imr-32; Not Active = under 50% inhibition at 10 µM
Nitric oxide synthase 1 = Nitric oxide synthase 1 (Rattus norvegicus, UniProt P29476); format: tissue-based, Cerebellum; further: in other assays of this panel Not Active means under 50% inhibition at 10 µM
Nitric oxide synthase 1, sequence (P29476 whole entry): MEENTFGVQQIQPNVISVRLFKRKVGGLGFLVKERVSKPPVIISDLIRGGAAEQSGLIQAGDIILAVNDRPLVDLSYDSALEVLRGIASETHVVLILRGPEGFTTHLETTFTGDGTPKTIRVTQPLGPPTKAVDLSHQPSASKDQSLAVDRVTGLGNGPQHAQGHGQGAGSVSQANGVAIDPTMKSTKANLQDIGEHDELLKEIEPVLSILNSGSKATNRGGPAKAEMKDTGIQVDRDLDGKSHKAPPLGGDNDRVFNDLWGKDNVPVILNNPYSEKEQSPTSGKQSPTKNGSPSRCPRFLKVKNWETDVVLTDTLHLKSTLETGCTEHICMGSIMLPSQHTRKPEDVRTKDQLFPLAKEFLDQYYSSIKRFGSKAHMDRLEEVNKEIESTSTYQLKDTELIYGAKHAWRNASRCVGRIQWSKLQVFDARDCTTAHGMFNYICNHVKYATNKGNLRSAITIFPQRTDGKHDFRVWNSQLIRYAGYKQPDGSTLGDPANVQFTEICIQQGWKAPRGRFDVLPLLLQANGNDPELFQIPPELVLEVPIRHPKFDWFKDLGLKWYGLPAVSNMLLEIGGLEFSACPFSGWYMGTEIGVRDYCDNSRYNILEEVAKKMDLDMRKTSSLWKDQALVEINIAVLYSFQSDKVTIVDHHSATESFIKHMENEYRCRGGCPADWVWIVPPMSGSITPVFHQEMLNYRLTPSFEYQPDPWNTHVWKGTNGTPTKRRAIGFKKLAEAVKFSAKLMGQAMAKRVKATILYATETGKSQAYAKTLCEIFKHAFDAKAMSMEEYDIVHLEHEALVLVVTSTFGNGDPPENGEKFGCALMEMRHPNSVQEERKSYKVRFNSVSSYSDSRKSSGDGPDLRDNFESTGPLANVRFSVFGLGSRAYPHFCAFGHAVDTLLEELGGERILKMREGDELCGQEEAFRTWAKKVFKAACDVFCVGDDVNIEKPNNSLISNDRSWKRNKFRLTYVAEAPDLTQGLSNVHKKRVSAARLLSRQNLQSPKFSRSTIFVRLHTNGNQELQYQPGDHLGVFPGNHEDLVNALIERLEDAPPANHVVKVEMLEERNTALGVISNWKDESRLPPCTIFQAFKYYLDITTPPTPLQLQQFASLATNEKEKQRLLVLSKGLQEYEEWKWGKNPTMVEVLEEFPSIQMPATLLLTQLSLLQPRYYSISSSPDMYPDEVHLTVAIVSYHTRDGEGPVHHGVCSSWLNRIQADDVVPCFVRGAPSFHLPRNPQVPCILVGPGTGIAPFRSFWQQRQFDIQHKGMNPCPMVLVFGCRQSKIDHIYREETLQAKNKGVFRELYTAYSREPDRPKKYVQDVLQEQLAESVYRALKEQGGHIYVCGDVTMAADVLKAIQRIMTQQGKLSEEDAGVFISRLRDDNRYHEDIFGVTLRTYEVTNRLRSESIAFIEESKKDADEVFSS

Vasopressin V1a receptor = Vasopressin V1a receptor (Homo sapiens, UniProt P37288); format: cell membranes, Membrane; conditions: hek293; further: in other assays of this panel Not Active means under 50% inhibition at 10 µM
Vasopressin V1a receptor, sequence (P37288 whole entry): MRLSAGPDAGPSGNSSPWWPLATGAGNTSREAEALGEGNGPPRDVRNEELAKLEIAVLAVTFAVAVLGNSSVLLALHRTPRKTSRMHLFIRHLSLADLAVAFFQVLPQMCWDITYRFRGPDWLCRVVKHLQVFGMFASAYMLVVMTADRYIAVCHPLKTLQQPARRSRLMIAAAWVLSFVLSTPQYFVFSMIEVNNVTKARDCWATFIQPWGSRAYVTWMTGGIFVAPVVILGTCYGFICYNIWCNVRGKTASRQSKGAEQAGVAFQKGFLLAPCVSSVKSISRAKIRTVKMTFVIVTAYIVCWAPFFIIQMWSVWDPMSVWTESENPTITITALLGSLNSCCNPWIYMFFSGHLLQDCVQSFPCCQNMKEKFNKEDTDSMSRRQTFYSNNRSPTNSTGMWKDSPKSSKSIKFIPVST

[4] = biological target: Epidermal growth factor receptor (Homo sapiens, UniProt P00533); experiment: DRUGMATRIX: Protein Tyrosine Kinase, EGF Receptor enzyme inhibition (substrate: Poly(Glu:Tyr)); format: cell-based, Insect cells; conditions: insect cells; Not Active = under 50% inhibition at 10 µM
Epidermal growth factor receptor, sequence (P00533 whole entry): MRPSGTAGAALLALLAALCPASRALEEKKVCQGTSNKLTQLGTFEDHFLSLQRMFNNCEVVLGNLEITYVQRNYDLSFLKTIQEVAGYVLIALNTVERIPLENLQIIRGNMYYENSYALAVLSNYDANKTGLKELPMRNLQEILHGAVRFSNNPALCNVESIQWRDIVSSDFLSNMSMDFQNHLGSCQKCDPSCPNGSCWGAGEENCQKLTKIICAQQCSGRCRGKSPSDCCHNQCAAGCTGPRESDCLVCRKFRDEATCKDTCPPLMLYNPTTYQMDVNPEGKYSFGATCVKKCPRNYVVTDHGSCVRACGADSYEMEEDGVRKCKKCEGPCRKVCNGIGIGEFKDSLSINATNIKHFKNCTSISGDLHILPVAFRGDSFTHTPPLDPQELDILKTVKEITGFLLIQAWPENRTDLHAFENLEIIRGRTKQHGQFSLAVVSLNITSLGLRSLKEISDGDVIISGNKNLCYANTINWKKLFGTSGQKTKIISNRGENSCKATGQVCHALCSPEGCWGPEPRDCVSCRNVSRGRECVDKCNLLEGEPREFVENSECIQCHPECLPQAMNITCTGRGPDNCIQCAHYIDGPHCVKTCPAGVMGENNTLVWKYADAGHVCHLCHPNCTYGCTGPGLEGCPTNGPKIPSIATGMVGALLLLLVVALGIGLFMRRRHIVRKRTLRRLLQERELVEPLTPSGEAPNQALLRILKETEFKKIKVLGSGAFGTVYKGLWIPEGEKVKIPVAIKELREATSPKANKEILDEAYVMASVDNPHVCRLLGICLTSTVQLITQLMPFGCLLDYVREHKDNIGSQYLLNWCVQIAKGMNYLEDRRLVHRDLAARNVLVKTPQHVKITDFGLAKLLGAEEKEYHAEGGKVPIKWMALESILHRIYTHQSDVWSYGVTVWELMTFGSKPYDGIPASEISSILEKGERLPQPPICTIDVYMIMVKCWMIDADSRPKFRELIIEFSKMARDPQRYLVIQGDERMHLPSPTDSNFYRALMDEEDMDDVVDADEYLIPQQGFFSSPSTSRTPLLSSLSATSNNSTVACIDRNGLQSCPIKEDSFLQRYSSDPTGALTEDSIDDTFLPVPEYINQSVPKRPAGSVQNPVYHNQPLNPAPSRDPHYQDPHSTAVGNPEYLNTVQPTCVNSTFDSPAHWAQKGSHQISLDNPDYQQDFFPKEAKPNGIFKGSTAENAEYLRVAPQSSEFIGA

Cathepsin G = biological target: T3, Cathepsin G (Homo sapiens, UniProt P08311); format: tissue-based; conditions: neutrophil
T3 sequence (P08311 whole entry): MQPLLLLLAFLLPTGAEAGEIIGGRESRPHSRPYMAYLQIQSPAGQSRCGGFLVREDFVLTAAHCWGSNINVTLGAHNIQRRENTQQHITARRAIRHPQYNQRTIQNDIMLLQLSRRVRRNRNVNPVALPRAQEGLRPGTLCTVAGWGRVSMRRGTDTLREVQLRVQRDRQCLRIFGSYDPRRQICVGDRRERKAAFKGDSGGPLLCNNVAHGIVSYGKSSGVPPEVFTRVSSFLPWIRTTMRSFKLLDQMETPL

[5] = biological target: T4, 5-hydroxytryptamine receptor 1A (Rattus norvegicus, UniProt P19327); format: cell membranes, Membrane; conditions: cho-k1; further: in other assays of this panel Not Active means under 50% inhibition at 10 µM
T4 sequence (P19327 whole entry): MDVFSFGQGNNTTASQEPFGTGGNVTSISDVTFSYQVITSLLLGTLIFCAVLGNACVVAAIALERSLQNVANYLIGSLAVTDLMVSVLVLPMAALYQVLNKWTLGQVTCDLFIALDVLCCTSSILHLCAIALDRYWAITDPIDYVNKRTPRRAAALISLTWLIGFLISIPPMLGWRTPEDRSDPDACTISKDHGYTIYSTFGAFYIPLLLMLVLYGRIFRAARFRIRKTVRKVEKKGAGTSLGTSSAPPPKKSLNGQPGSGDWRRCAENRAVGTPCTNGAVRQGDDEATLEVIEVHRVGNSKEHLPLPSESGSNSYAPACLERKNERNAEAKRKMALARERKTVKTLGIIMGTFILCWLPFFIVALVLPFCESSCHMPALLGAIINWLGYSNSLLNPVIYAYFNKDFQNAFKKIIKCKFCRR

[6] = biological target: Prostaglandin G/H synthase 1 (Homo sapiens, UniProt P23219); experiment: biochemical; format: tissue-based, Platelet; conditions: platelet
Prostaglandin G/H synthase 1, sequence (P23219 whole entry): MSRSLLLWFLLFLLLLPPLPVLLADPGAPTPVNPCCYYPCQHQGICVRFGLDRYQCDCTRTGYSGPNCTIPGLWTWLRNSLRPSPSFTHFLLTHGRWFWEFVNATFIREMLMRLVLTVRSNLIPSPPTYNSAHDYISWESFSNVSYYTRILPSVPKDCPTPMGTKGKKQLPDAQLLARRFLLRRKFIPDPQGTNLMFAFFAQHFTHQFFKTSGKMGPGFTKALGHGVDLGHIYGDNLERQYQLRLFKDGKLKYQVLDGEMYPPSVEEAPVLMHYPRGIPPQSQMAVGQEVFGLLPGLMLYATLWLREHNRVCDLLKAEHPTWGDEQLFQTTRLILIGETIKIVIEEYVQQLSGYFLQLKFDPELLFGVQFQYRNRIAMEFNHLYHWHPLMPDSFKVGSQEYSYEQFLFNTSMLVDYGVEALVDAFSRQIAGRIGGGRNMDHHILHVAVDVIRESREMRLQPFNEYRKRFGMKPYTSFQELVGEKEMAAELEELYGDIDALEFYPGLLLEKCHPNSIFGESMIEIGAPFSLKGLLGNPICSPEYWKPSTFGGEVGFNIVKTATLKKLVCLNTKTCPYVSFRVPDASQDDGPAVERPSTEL

[7] = biological target: 5-hydroxytryptamine receptor 2B (Homo sapiens, UniProt P41595); format: cell membranes, CHO-K1, Membrane; conditions: cho-k1; further: in other assays of this panel Not Active means under 50% inhibition at 10 µM
5-hydroxytryptamine receptor 2B, sequence (P41595 whole entry): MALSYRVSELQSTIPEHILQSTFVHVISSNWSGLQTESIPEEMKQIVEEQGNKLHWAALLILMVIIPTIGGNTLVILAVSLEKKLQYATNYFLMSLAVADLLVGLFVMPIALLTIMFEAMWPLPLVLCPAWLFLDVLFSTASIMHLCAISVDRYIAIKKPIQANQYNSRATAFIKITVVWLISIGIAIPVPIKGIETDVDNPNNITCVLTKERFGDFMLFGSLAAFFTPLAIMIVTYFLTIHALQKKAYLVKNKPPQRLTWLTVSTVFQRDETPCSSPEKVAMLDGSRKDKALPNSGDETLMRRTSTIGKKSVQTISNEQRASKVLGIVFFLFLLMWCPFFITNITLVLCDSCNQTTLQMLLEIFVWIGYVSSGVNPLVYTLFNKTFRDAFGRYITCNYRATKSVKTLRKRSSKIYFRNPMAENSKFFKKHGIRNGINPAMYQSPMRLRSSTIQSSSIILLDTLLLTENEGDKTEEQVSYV

Sigma non-opioid intracellular receptor 1, sequence (Q99720 whole entry): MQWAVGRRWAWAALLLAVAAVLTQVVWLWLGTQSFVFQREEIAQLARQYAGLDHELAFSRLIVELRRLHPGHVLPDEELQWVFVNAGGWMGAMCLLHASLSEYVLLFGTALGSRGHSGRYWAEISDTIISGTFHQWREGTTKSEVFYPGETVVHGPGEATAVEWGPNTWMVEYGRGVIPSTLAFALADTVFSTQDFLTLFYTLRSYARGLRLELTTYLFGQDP

CC1=C(CC(=O)O)c2cc(F)ccc2/C1=C\c1ccc([S+](C)[O-])cc1 (stereo not drawn)
Not Active: IC50 [1] | IC50 (Calcitonin receptor) | IC50 (Cytochrome P450 2E1) | Ki (Cytochrome P450 2E1) | IC50 [2] | IC50 [3] | Ki [3] | IC50 (Nitric oxide synthase 1) | IC50 (Vasopressin V1a receptor) | IC50 [4] | IC50 (Cathepsin G) | IC50 [5] | IC50 [6] | IC50 [7]

CC(=O)CC(c1ccccc1)c1c(O)c2ccccc2oc1=O (stereo not drawn) [WARFARIN]
Not Active: IC50 [1] | IC50 (Calcitonin receptor) | IC50 (Cytochrome P450 2E1) | Ki (Cytochrome P450 2E1) | IC50 [2] | IC50 [3] | Ki [3] | IC50 (Nitric oxide synthase 1) | IC50 (Vasopressin V1a receptor) | IC50 [4] | IC50 (Cathepsin G) | IC50 [5] | IC50 [6] | IC50 [7]
